From paper PMC8881610 (Nature Communications, 2022)

How the values were obtained:
GCGR = GCGR (Homo sapiens, UniProt P47871); assay: Whole-cell binding assay, competition with 125I-GCG; parameters: V5 (C); 6×His (C); expressed in transfected cells; host or cells: CHO-K1; settings: Fig. 7c receptor binding profile, n = 3 in duplicate
Description: (§1) Human embryonic kidney 293 cells containing SV40 large T-antigen (HEK293T) were cultured in DMEM (Gibco) supplemented with 10% (v/v) fetal bovine serum (FBS, Gibco), 1 mM sodium pyruvate (Gibco) and 100 units/mL penicillin and 100 μg/mL streptomycin at 37 °C in 5% CO2. Chinese hamster ovary (CHO-K1) cells were cultured in F-12 (Gibco) containing 10% FBS, 100 units/mL penicillin and 100 μg/mL streptomycin at 37 °C in 5% CO2. For cAMP and receptor expression assays, HEK293T cells were seeded into 6-well cell culture plates at a density of 7 × 10^5 cells per well. After overnight incubation, cells were transfected with GIPR, GLP-1R or GCGR construct using Lipofectamine 2000 or Lipofectamine 3000 transfection reagent (Invitrogen). For whole-cell binding assay, CHO-K1 cells were seeded into 96-well fibronectin-treated cell culture plates at a density of 3 × 10^4 cells per well. After overnight incubation, cells were transfected with GIPR, GLP-1R or GCGR construct using Lipofectamine 2000 transfection reagent (Invitrogen). Following 24 h culturing, the transfected cells were ready for use.
For GLP-1R and GCGR, CHO-K1 cells (30,000 cells/well) were seeded into Isoplate-96 plates and incubated for 24 h at 37 °C in 5% CO2. The WT or mutant constructs were transiently transfected using Lipofectamine 2000 transfection reagent as previous described. They were then washed twice using F-12 with 0.1% BSA or 0.1% casein, 33 mM HEPES, and incubated for 2 h at 37 °C. […] Cells were washed three times with ice-cold PBS and lysed in PBS with 1% Triton X-100, 20 mM Tris-HCl. After addition of scintillation cocktail (PerkinElmer), radioactivity (CPM) was counted on a MicroBeta^2 microplate counter (PerkinElmer). Data were normalized to the WT response and analyzed using three-parameter logistic equation.

GIPR = biological target: T1, GIPR (Homo sapiens, UniProt P48546); assay: Whole-cell binding assay, competition with 125I-GIP1-42; parameters: acylated tirzepatide to the full-length or modified; Flag; expressed in transfected cells; settings: Fig. 7c receptor binding profile, n = 3 in duplicate
T1 sequence (P48546 22-466): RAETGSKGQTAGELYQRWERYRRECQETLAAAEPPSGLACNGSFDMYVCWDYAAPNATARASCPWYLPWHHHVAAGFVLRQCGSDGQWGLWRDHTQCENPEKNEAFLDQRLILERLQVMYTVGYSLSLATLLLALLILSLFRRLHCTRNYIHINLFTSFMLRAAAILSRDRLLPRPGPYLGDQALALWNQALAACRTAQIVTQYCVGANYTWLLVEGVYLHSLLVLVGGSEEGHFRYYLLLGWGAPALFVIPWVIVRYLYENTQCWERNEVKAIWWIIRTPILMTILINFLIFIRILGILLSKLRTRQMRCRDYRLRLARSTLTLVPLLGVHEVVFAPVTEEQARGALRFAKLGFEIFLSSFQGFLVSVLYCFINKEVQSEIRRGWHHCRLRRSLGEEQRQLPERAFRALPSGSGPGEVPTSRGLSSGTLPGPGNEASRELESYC
Description: as §1
For GIPR, CHO-K1 cells were cultured in F-12 medium with 10% FBS and seeded at a density of 30,000 cells/well in Isoplate-96 plates (PerkinElmer). The WT or mutant GIPR was transiently transfected using Lipofectamine 2000 transfection reagent as previous described. They were then washed twice using F-12 with 0.1% BSA or 0.1% casein, 33 mM HEPES, and incubated for 2 h at 37 °C. […] Following incubation, cells were washed three times with ice-cold PBS and lysed by addition of 50 μL lysis buffer (PBS supplemented with 20 mM Tris-HCl, 1% Triton X-100, pH 7.4). Fifty µL of scintillation cocktail (OptiPhase SuperMix, PerkinElmer) were added and the plates were subsequently counted for radioactivity (counts per minute, CPM) in a MicroBeta^2 microplate counter (PerkinElmer).

GLP-1R = GLP-1R (Homo sapiens, UniProt P43220); assay: cAMP accumulation assay, GLP-1R WT, mutant or modified constructs; assay type: cell-based; parameters: Flag; expressed in transfected cells; host or cells: HEK293T; settings: GLP-1R; HEK293T, n = 4; SEM
Description: as §1
The human GLP-1R was modified with its native signal sequence (M1-P23) replaced by the HA signal peptide to facilitate receptor expression. To obtain a GLP-1R–Gs complex with good homogeneity and stability, we used the NanoBiT tethering strategy, in which the C terminus of GLP-1R was directly attached to LgBiT subunit followed by a TEV protease cleavage site and a double MBP tag. […] The constructs were cloned into both pcDNA3.1 and pFastBac vectors for functional assays in mammalian cells and protein expression in insect cells, respectively. Other constructs including the full-length and various mutants of human GLP-1R were cloned into pcDNA3.1 vector for cAMP accumulation and whole-cell binding assays.
For GIPR, GLP-1R and GCGR, multi-targeting agonist stimulated cAMP accumulation was measured by a LANCE Ultra cAMP kit (PerkinElmer). After 24 h culture, the transfected cells were seeded into 384-well microtiter plates at a density of 3,000 cells per well in HBSS supplemented with 5 mM HEPES, 0.1% (w/v) BSA or 0.1% (w/v) casein and 0.5 mM 3-isobutyl-1-methylxanthine. The cells were stimulated with different concentrations of peptide agonists for 40 min at RT. Eu-cAMP tracer and ULight^TM-anti-cAMP were then diluted by cAMP detection buffer and added to the plates separately to terminate the reaction. Plates were incubated at RT for 1 h and the fluorescence intensity measured at 620 nm and […] by an EnVision multilabel plate reader (PerkinElmer).

[1] = clinical trial outcome; Drugs@FDA, ChemBL, ClinicalTrials.gov; cited from earlier work

GCGR, sequence (P47871 26-477): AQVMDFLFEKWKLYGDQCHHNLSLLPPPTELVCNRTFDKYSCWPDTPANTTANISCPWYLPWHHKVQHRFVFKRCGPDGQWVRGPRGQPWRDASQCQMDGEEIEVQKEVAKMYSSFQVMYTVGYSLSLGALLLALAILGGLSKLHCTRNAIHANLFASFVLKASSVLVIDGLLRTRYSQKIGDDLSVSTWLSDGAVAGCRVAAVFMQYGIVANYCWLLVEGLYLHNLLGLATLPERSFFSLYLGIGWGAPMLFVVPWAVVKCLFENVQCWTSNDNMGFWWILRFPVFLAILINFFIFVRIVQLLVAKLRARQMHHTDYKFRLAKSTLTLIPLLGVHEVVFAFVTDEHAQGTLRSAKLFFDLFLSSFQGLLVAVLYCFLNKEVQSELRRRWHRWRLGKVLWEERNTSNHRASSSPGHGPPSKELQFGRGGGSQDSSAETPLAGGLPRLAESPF
GLP-1R, sequence (P43220 24-463): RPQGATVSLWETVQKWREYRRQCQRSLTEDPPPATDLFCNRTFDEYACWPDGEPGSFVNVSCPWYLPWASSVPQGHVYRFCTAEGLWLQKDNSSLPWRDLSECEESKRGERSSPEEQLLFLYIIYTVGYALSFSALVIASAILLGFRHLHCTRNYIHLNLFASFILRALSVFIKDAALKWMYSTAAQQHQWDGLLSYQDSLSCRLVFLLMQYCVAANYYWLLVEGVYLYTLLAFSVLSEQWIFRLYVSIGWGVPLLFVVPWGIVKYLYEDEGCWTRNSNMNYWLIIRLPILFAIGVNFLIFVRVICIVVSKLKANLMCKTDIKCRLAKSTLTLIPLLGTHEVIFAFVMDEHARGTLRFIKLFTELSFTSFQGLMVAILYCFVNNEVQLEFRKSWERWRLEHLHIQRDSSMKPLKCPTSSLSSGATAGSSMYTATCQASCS

Row | Compound | GCGR (pIC50 ± S.E.M.) (GCGR) | GIPR (pIC50 ± S.E.M.) (GIPR) | cAMP Emax ± S.E.M. (GLP-1R) | cAMP pEC50 ± S.E.M. (GLP-1R) | Body weight [1] | Fasting plasma glucose [1] [mg/dL] | HAb1c [1] [%]
1 | Dulaglutide: approved GLP-1R mono-agonist | – | – | – | – | -0.20 kg or % | -34.20 | -1.45
2 | Exenatide: approved GLP-1R mono-agonist | – | – | – | – | -0.65 kg or % | -34.20 | -1.21

The next lines start with results.

Row | GCGR (pIC50 ± S.E.M.) (GCGR) | GIPR (pIC50 ± S.E.M.) (GIPR) | cAMP Emax ± S.E.M. (GLP-1R) | cAMP pEC50 ± S.E.M. (GLP-1R) | Compound | Body weight [1] | Fasting plasma glucose [1] [mg/dL] | HAb1c [1] [%]
3 | N.B. | – | – | – | CC[C@H](C)[C@H](NC(=O)[C@H](CO)NC(=O)[C@H](Cc1ccc(O)cc1)NC(=O)[C@H](CC(=O)O)NC(=O)[C@H](CO)NC(=O)[C@@H](NC(=O)[C@H](Cc1ccccc1)NC(=O)[C@@H](NC(=O)CNC(=O)[C@H](CCC(=O)O)NC(=O)[C@H](C)NC(=O)[C@@H](N)Cc1ccc(O)cc1)[C@@H](C)O)[C@@H](C)CC)C(=O)N[C@@H](C)C(=O)N[C@@H](CCSC)C(=O)N[C@@H](CC(=O)O)C(=O)N[C@@H](CCCCN)C(=O)N[C@H](C(=O)N[C@@H](Cc1c[nH]cn1)C(=O)N[C@@H](CCC(N)=O)C(=O)N[C@@H](CCC(N)=O)C(=O)N[C@@H](CC(=O)O)C(=O)N[C@@H](Cc1ccccc1)C(=O)N[C@H](C(=O)N[C@@H](CC(N)=O)C(=O)N[C@@H](Cc1c[nH]c2ccccc12)C(=O)N[C@@H](CC(C)C)C(=O)N[C@@H](CC(C)C)C(=O)N[C@@H](C)C(=O)N[C@@H](CCC(N)=O)C(=O)N[C@@H](CCCCN)C(=O)NCC(=O)N[C@@H](CCCCN)C(=O)N[C@@H](CCCCN)C(=O)N[C@@H](CC(N)=O)C(=O)N[C@@H](CC(=O)O)C(=O)N[C@@H](Cc1c[nH]c2ccccc12)C(=O)N[C@@H](CCCCN)C(=O)N[C@@H](Cc1c[nH]cn1)C(=O)N[C@@H](CC(N)=O)C(=O)N[C@H](C(=O)N[C@H](C(=O)N[C@@H](CCC(N)=O)C(=O)O)[C@@H](C)O)[C@@H](C)CC)C(C)C)[C@@H](C)CC [GIP1-42, glucose-dependent insulinotropic polypeptide] | – | – | –
4 | N.B. | N.B. | – | – | CCCCCCCCCCCCCCCC(=O)N[C@@H](CCC(=O)NCCCC[C@H](NC(=O)[C@H](C)NC(=O)[C@H](C)NC(=O)[C@H](CCC(N)=O)NC(=O)CNC(=O)[C@H](CCC(=O)O)NC(=O)[C@H](CC(C)C)NC(=O)[C@H](Cc1ccc(O)cc1)NC(=O)[C@H](CO)NC(=O)[C@H](CO)NC(=O)[C@@H](NC(=O)[C@H](CC(=O)O)NC(=O)[C@H](CO)NC(=O)[C@@H](NC(=O)[C@H](Cc1ccccc1)NC(=O)[C@@H](NC(=O)CNC(=O)[C@H](CCC(=O)O)NC(=O)[C@H](C)NC(=O)[C@@H](N)Cc1c[nH]cn1)[C@@H](C)O)[C@@H](C)O)C(C)C)C(=O)N[C@@H](CCC(=O)O)C(=O)N[C@@H](Cc1ccccc1)C(=O)N[C@H](C(=O)N[C@@H](C)C(=O)N[C@@H](Cc1c[nH]c2ccccc12)C(=O)N[C@@H](CC(C)C)C(=O)N[C@H](C(=O)N[C@@H](CCCNC(=N)N)C(=O)NCC(=O)N[C@@H](CCCNC(=N)N)C(=O)NCC(=O)O)C(C)C)[C@@H](C)CC)C(=O)O [Liraglutide] | – | – | –
5 | N.B. | N.B. | 100.13 ± 1.66 % max GLP-1(7-36)NH2 | 11.02 ± 0.05 | Albiglutide: approved GLP-1 analog, GLP-1R mono-agonist | -0.04 kg or % | -30.00 | -1.3
